What was measured:
Rattus norvegicus [1] = details: oral, M/F
Rattus norvegicus [2] = details: repeat dose other; oral
Rattus norvegicus [3] = details: chronic, oral
Rattus norvegicus [4] = details: oral
Mus musculus [5] = details: M/F
Rattus norvegicus [6] = test system: Rattus norvegicus
Rattus norvegicus [7] = details: subchronic, oral, gavage
Mus musculus [8] = details: oral, gavage, B6C3F1
Rattus norvegicus [9] = details: oral, gavage, Fischer 344
Mus musculus [10] = details: subchronic; duration: 90 days; oral; gavage; M/F; CD1; hepatic
[11] = subchronic, reduced mean terminal body weight (males)
[12] = chronic, duration: 2 years, diet, M/F, Crl:CD(SD), reduced weight gain
[13] = subchronic, oral, hepatotoxicity

`[Cr+6]` [Chromium (VI) ion] showed an NOAEL (Rattus norvegicus [1]; chronic, duration: 1 years, drinking water, no effects) of 25 mg/L, an LOAEL (Rattus norvegicus [2]) of 13.1 mg/kg-day and an NOAEL (Rattus norvegicus [2]) of 3.28 mg/kg-day. The NOAEL (Rattus norvegicus [3]; duration: 1 years, drinking water, None Observed) was 2.4 mg/kg-day.
For `CC[n+]1c(-c2ccccc2)c2cc(N=NNc3cccc(C(=N)N)c3)ccc2c2ccc(N)cc21` [Isometamidium], the NOAEL (Rattus norvegicus [4]; subchronic, duration: 13 weeks, gavage, M/F, Crl:CD(SD) BR) was 50 mg/kg-day.
With `c1ccc2ccccc2c1` [Naphthalene] the LOAEL (Mus musculus [5]; chronic, inhalation, nasal effects: hyperplasia and metaplasia in respiratory and olfactory epithelium, respectively) was 52.4 mg/m3, the LOAEL (Rattus norvegicus [1]; [11]) was 200 mg/kg-day and the NOAEL (Rattus norvegicus [1]; [11]) was 100 mg/kg-day. The LOAEL (Rattus norvegicus [6]; chronic, duration: 105 weeks, inhalation, M/F, Fischer 344, respiratory) was 52.4 mg/m3 and the LOAEL (Rattus norvegicus [6]; reproduction developmental, duration: 9 days, oral, gavage, F, Sprague-Dawley, neurological) was 50 mg/kg-day.
`[Ba+2].[Cl-].[Cl-]` [Barium chloride] showed an NOAEL (Rattus norvegicus [2]) of 5.1 mg/kg-day.
In the case of `CCOC(=O)C(C)OC(=O)c1cc(Oc2ccc(C(F)(F)F)cc2Cl)ccc1[N+](=O)[O-]` (stereo not given) [Lactofen], the LEL (Mus musculus [5]; chronic, duration: 78 weeks, oral, hepatocytomegaly in males + Increased absolute and relative liver weight) is reported as 1.5 mg/kg-day.
Molecule `[Ni]` [Nickel] has an NOAEL (Rattus norvegicus [6]; chronic, duration: 2 years, inhalation, M/F, Fischer 344, respiratory) of 0.03 mg/m3, an NOAEL (Rattus norvegicus [6]; subchronic, duration: 13 weeks, inhalation, M/F, Fischer 344, respiratory) of 0.06 mg/m3 and an NOAEL (Rattus norvegicus [3]; duration: 2 years, diet, Organs, major: Decreased organ weight + Whole body: Decreased body weight) of 7.8 mg/kg-day.
For `CN[C@@H]1[C@H](O[C@H]2[C@H](O[C@H]3[C@H](O)[C@@H](O)[C@H](N=C(N)N)[C@@H](O)[C@@H]3N=C(N)N)O[C@@H](C)[C@]2(O)CO)O[C@@H](CO)[C@H](O)[C@H]1O` [Dihydrostreptomycin], the LOEL (Rattus norvegicus [4]; [12]) was 10 mg/kg-day and the NOEL (Rattus norvegicus [4]; [12]) was 5 mg/kg-day.
Molecule `CN(C)c1ccccc1` [N,N-Dimethylaniline] has an NOEL (Rattus norvegicus [7]; duration: 13 weeks, M/F, Fischer 344, Body Weight Changes: decrease + Histopathology: Spleen-Hematopoiesis, extramedullary Spleen-Hemosiderosis Kidney-Pigmentation Liver-…) of less than 31 mg/kg-day, an NOEL (Rattus norvegicus [7]; M, Sprague-Dawley, Clinical Observation: Dark-red discoloration of skin R + Functional Observational Battery: Dark-red discoloration of skin R + Hematology: …) of 1 mg/kg-day and an LOAEL (Mus musculus [5]; subchronic, oral, gavage, splenomegaly, increased splenic hemosiderosis and hematopoiesis) of 31.2 mg/kg-day. For the same molecule, the LOAEL (Mus musculus [8]; short-term, duration: 15 days) was 188 mg/kg-day, the NOAEL (Mus musculus [8]; short-term, duration: 15 days) was 93.8 mg/kg-day and the LOAEL (Mus musculus [8]; subchronic, duration: 13 weeks) was 62.5 mg/kg-day. It also gave an NOAEL (Mus musculus [8]; subchronic, duration: 13 weeks) of 31.2 mg/kg-day, an NOAEL (Rattus norvegicus [9]; short-term, duration: 14 days) of 93.8 mg/kg-day and an NOAEL (Rattus norvegicus [9]; subchronic, duration: 13 weeks) of 31.2 mg/kg-day.
Molecule `c1cc2c3c(cccc3c1)CC2` [Acenaphthene] has an LOAEL (Mus musculus [5]; [13]) of 350 mg/kg-day, an NOAEL (Mus musculus [5]; [13]) of 175 mg/kg-day and an LOAEL (Mus musculus [10]) of 175 mg/kg-day.
For `C[C@@H]1C[C@H]2[C@@H]3CCC4=CC(=O)C=C[C@]4(C)[C@@]3(F)[C@@H](O)C[C@]2(C)[C@@]1(O)C(=O)CO` [Dexamethasone], the NOEL (Rattus norvegicus [4]; short-term, gavage, Induction of hepatic tyrosine aminotransferase activity) was 0.0015 mg/kg-day.
